# Tested on: gastric acid secretion
# Assay: Gastric acid secretion activity test using pyloric ligation in rats (Shay rat method)
# Type: in vivo
# Details: male SD rats, 20 mg/kg injected into the duodenal region, 4 hours, result given in words only
# Description: Gastric acid secretion activity test using pyloric ligation in rats (Shay rat method)
# Pyloric ligation was conducted based on the method of Shay et al. [Gastroenterology, 5, 43 (1945)]. Male rats of SD strain were fasted for 24 hours; their abdomens were sectioned during anesthesia under ether. The duodenal and pyloric regions were exposed and the latter was ligated. A solution of a test compound (10 mg/ml) prepared by use of 1.5w parts of dimethylacetamide, 68.5% parts of polyethyleneglycol (PEG-400) and 30% parts of physiological saline solution, was injected into the duodenal region for the dose to be 20 mg/kg by use of a 1-ml syringe and an injection needle (26G). After injection of the test compound, the abdominal region was sutured. The animals were allowed to a stand for 4 hours without feeding food and water and then sacrified with carbon dioxide gas. The stomach was excised and gastric juice was gathered. The gastric juice sample was centrifuged (4° C., 2500 rpm, 15 minutes). The amount of the supernatant was measured to be as the gastric secretion. The acidity of the gastric juice was determined by the amount (ml) of 0.01 N sodium hydroxide solution required for titration of 0.1 ml of the supernatant to pH 7.0 by use of-an auto-titrating apparatus. The value of gastric acid secretion was calculated from the value of gastric secretion and the acidity of gastric juice. The inhibiting rate was obtained from the values of gastric acid secretion of the control group and of the administered group.
row,SMILES,inhibiting rate of gastric acid secretion
1,"C=C(C)Cn1c(C)c(C)c2cnnc(OCc3ccccc3)c21 [Example 14, 7-Benzyloxy-2,3-dimethyl-1-(2-methyl-2-propenyl)-ovrrolo[2,3-d]pyridazine]",excellent activity
2,"Cc1c(C)n(CC=C(Cl)Cl)c2c(OCc3ccccc3)nncc12 [Example 41, 7-Benzyloxy-1-(3,3-dichloro-2-propenyl)-2,3-dimethylpyrrolo[2,3-d]pyridazine]",excellent activity
3,"C/C=C/Cn1c(CC)c(C)c2cnnc(OCc3ccc(F)cc3)c21 [Example 33, 1-(2-Butenyl)-2-ethyl-7-(4-fluorobenzyloxy)-3-methylpyrrolo[2,3-d]pyridazine]",excellent activity
4,"CC=CCn1c(C)c(C)c2cnnc(OCc3ccccc3)c21 [Example 5, 7-Benzyloxy-1-(2-butenyl)-2,3-dimethylpyrrolo[2,3-d]pyridazine]",excellent activity
5,"CC=CCn1c(C)c(C)c2cnnc(OCc3c(F)cccc3Cl)c21 [Example 40, 1-(2-Butenyl)-7-(2-chloro-6-fluorobenzyloxy)-2,3-dimethylpyrrolo[2,3-d]pyridazine]",excellent activity
6,"C=C(C)Cn1c(C)c(C)c2cnnc(OCc3ccc(F)cc3)c21 [Example 26, 7-(4-Fluorobenzyloxy)-2,3-dimethyl-1-(2-methyl-2-propenyl)pyrrolo[2,3-d]pyridazine]",excellent activity
7,"C#CCn1c(C)c(C)c2cnnc(OCc3ccccc3)c21 [Example 42, 7-Benzyloxy-2,3-dimethyl-1-(2-propynyl)pyrrolo[2,3-d]pyridazine]",excellent activity
8,"Cc1c(C)n(CC2CC2C)c2c(CCc3ccccc3)nncc12 (stereo not drawn) [Example 68, 2,3-Dimethyl-1-(2-methylcyclopropylmethyl)-7-phenethylpyrrolo[2,3-d]pyridazine]",excellent activity
9,"Cc1c(C)n(CC2CCCCC2)c2c(OCc3ccc(F)cc3)nncc12 [Example 37, 1-Cyclohexylmethyl-7-(4-fluorobenzyloxy)-2,3-dimethylpyrrolo[2,3-d]pyridazine]",excellent activity
10,"CC=CCn1c(C)c(C)c2cnnc(CCc3ccc(F)cc3)c21 [Example 62, 1-(2-Butenyl)-7-(4-fluorophenethyl)-2,3-dimethylpyrrolo[2,3-d]pyridazine]",excellent activity
11,"CC=CCn1c(C)c(C)c2cnnc(OCc3cccnc3)c21 [Example 32, 1-(2-Butenyl)-2,3-dimethyl-7-(3-pyridylmethyloxy)pyrrolo[2,3-d]pyridazine]",excellent activity

# Tested on: Helicobacter pylori strains 9470, 9472 and 9474
# Assay: Antibacterial activity against Helicobacter pylori
# Type: cell-based
# Details: strains 9470, 9472 and 9474, 37° C., 3 days, slightly aerobic; result given in words only
# Description: Antibacterial activity against Helicobacter pylori The antibacterial activity of the compounds of the present invention were evaluated by measuring the minimum inhibitory concentration values (MIC) of the present compounds against Helicobacter pylori strains 9470, 9472 and 9474. These strains of Helicobacter pylori were incubated for 4 days on a plate medium. The medium was prepared by dissolving brain heart infusion agar (Product of DIFCO) in a defined amount of distilled water, by sterilization in an autoclave, injecting horse blood (Product of Nihon Seibutsu Zairyo Co.) into each plate for the medium to contain 7% of the blood and by solidifying. Under slightly aerobic conditions, Helicobacter pylori cultivated at 37° C. for 4 days was suspended in a physiological saline solution for its inocular size to be about 10^8 CFU/ml. The suspension was diluted 100 times, and about 10 μl of the diluted suspension was inoculated on a medium for MIC determination. The medium for MIC determination used had the same compounds as those for preculture. […] In a similar way to the preculture, Helicobacter pylori was cultivated at 37° C. for 3 days under slightly aerobic conditions. […] The minimum concentration which gave no bacterial growth was regarded as MIC of the compound of the present invention.
row,SMILES,minimum inhibitory concentration (MIC) against Helicobacter pylori
1,"Cc1c(C)n(CCF)c2c(OCc3ccccc3)nncc12 [Example 18, 7-Benzyloxy-1-(2-fluoroethyl)-2,3-dimethylpyrrolo[2,3-d]pyridazine]",excellent antibacterial activity
2,"C=C(C)Cn1c(C)c(C)c2cnnc(OCc3ccccc3)c21 [Example 14, 7-Benzyloxy-2,3-dimethyl-1-(2-methyl-2-propenyl)-ovrrolo[2,3-d]pyridazine]",excellent antibacterial activity
3,"C=CCn1c(C)c(CC)c2cnnc(OCc3ccccc3)c21 [Example 27, 7-Benzyloxy-3-ethyl-2-methyl-1-(2-propenyl)-6pyrrolo[2,3-d]pyridazine]",excellent antibacterial activity
4,"CC=CCn1c(C)c(CC)c2cnnc(OCc3ccc(F)cc3)c21 [Example 56, 1-(2-Butenyl)-3-ethyl-7-(4-fluorobenzyloxy)-2-methylpyrrolo[2,3-d]pyridazine]",excellent antibacterial activity
5,"CC(C)=CCn1c(C)c(C)c2cnnc(OCc3ccccc3)c21 [Example 2, 7-Benzyloxy-2,3-dimethyl-1-(3-methyl-2-butenyl)pyrrolo[2,3-d]pyridazine]",excellent antibacterial activity
6,"Cc1c(C)n(C/C=C/c2ccccc2)c2c(OCc3ccc(F)cc3)nncc12 [Example 24, 7-(4-Fluorobenzyloxy)-2,3-dimethyl-1-(3-phenyl-2-propenyl)pyrrolo[2,3-d]pyridazine]",excellent antibacterial activity

# The remaining lines, values ahead:
row,minimum inhibitory concentration (MIC) against Helicobacter pylori,SMILES
1,excellent antibacterial activity,"C=C=Cn1c(C)c(C)c2cnnc(OCc3ccccc3)c21 [Example 45, 7-Benzyloxy-2,3-dimethyl-1-(propane-1,2-dienyl)pyrrolo[2,3-d]pyridazine]"
2,excellent antibacterial activity,"CC=CCn1c(C)c(C)c2cnnc(SCc3ccc(F)cc3)c21 [Example 50, 1-(2-Butenyl)-7-(4-fluorobenylthio)-2,3-dimethylpyrrolo[2,3-d]pyridazine]"
3,excellent antibacterial activity,"CC=CCn1c(C)c(C)c2cnnc(OCc3ccccc3)c21 [Example 5, 7-Benzyloxy-1-(2-butenyl)-2,3-dimethylpyrrolo[2,3-d]pyridazine]"
4,excellent antibacterial activity,"Cc1c(C)n(CCCF)c2c(OCc3ccccc3)nncc12 [Example 19, 7-Benzyloxy-1-(3-fluoropropyl)-2,3-dimethylpyrrolo[2,3-d]pyridazine]"
5,excellent antibacterial activity,"C=CCn1c(C)c(C)c2cnnc(SCc3ccc(F)cc3)c21 [Example 34, 7-(4-Fluorobenzylthio)-2,3-dimethyl-1--(2-propenyl)ipyrrolo[2,3-d]pyridazine]"
6,excellent antibacterial activity,"C=CCn1c(C)c(C)c2cnnc(OCc3ccc(C(F)(F)F)cc3)c21 [Example 25, 2,3-Dimethyl-1-(2-propenyl)-7-(4-trifluoromethylbenzyloxy)pyrrolo[2,3-d]pyridazine]"
7,excellent antibacterial activity,"CC=CCn1c(C)c(C)c2cnnc(SCc3c(F)cccc3Cl)c21 [Example 52, 1-(2-Butenyl)-7-(2-chloro-6-fluorobenzylthio)-2,3-dimethylpyrrolo[2,3-d]pyridazine]"
8,excellent antibacterial activity,"Cc1c(C)n(CC(F)F)c2c(OCc3ccccc3)nncc12 [Example 20, 7-Benzyloxy-1-(2,2-difluoroethyl)-2,3-dimethylpyrrolo[2,3-d]pyridazine]"
9,excellent antibacterial activity,"Cc1c(C)n(CC(F)(F)F)c2c(OCc3ccccc3)nncc12 [Example 15, 7-Benzyloxy-2,3-dimethyl-1-(2,2,2-trifluoroethyl)pyrrolo[2,3-d]pyridazine]"
10,excellent antibacterial activity,"C/C=C\Cn1c(C)c(C)c2cnnc(OCc3ccc(F)cc3)c21 [Example 29, 1-(2-Butenyl)-7-(4-fluorobenzyloxy)-2,3-dimethylpyrrolo[2,3-d]pyridazine]"
11,excellent antibacterial activity,"C=CCn1c(C)c(C)c2cnnc(OCc3cccc(F)c3)c21 [Example 8, 7-(3-Fluorobenzyloxy)-2,3-dimethyl-1-(2-propenyl)pyrrolo[2,3-d]pyridazine]"
12,excellent antibacterial activity,"Cc1c(C)n(C/C=C/c2ccccc2)c2c(OCc3ccccc3)nncc12 [Example 6, 7-Benzyloxy-2,3-dimethyl-1-(3-phenyl-2-propenyl)pyrrolo[2,3-d]pyridazine]"
13,excellent antibacterial activity,"CC=CCn1c(C)c(C)c2cnnc(SCc3ccc(F)cc3F)c21 [Example 51, 1-(2-Butenyl)-7-(2,4-difluorobenzylthio)-2,3-dimethylpyrrolo[2,3-d]pyridazine]"
14,excellent antibacterial activity,"C=CCn1c(C)c(C)c2cnnc(OCc3ccccc3F)c21 [Example 10, 7-(2-Fluorobenzyloxy)-2,3-dimethyl-1-(2-propenyl)nvrrolo[2,3-d]pyridazine]"
15,excellent antibacterial activity,"C=Cn1c(C)c(C)c2cnnc(OCc3ccccc3)c21 [Example 13, 7-Benzyloxy-2,3-dimethyl-1-vinylpyrrolo[2,3-d]pyridazine]"
16,excellent antibacterial activity,"Cc1c(C)n(C2CCCCC2)c2c(OCc3ccccc3)nncc12 [Example 23, 7-Benzyloxy-1-cyclohexyl-2,3-dimethylpyrrolo[2,3-d]pyridazine]"
